Results published in paper PMC12717099, “Peptidoglycan recruitment by a penicillin binding protein” (Nature Communications, 2025).

Columns and labels:
Type in all cases: binding, Enterococcus faecium
[1] = test system: PBP5:PenG complex (1:8); assay: NMR CSP titration of stem peptides into PenG-saturated PBP5; conditions: PBP5:PenG 1:8, then SP titration
Protocol: Data was processed using Topspin 4.1.4 (Bruker) and analyzed using NMRFAM-SPARKY 1.3 and Poky (build number 20240829)[20],[21]. The sequence-specific backbone assignment of PBP5 is publicly available at BMRBID 51690.
SPs (SP1 to SP7) were titrated into 0.5 mM (^2H,^15N)-labeled and 0.1 mM (^2H,^15N)/^13C ILV labeled PBP5 at molar ratios of 0:1, 5:1, 10:1, 20:1, 40:1, 60:1, and 80:1 (stem peptide/SP:PBP5; molar ratios). 2D [^1H,^15N] TROSY or 2D [^1H,^13C] HMQC spectra were recorded for each titration point. SPs were solubilized in NMR buffer. Chemical shift perturbations (Δδ) between PBP5 and SP bound PBP5 spectra were calculated using Eq. 1,1 Δδppm=ΔδH^2+ΔδX/Y^2 where, X is ^15N or ^13C and Y is the constant i.e., 10 for ^15N and 4 for ^13C.
Residues with significant CSPs were identified by calculating the standard deviation of all CSPs (σ), then excluding any CSPs larger than average+2σ, recalculating σ as a new corrected σ0, and then repetitively removing CSPs above 2σ0 until no additional CSPs can be removed. CSPs above ≥2σ2 was the statistical threshold for ^1H/^15N backbone CSP analysis and ≥2xσ1 for ^1H/^13C methyl ILV data for the interaction of SP1 with PBP5. The same threshold values were used for all other peptides to allow for direct comparison with the SP1/PBP5 interaction. […]

[2] = test system: PBP5; assay: 1D 1H STD NMR of stem peptides with PBP5; conditions: for STD % to SP1: normalised to highest SP1:PBP5 value; for STD amplification factor: protein:peptide 1:100, 2 s saturation, 308 K
Description: (§1) Total saturation time for STD measurements was 2 s.
(§2) Overlapped peaks were completely excluded from the analysis.

[3] = test system: PBP5:PenG complex; assay: 1D 1H STD NMR of stem peptides with PBP5:PenG; conditions: for STD amplification factor: PenG-saturated PBP5, 2 s saturation
Description: as §1, §2

D-Lac-L-Ala-D-iGln-L-Lys(D-iAsn)-D-Ala-D-Ala [SP1]
CSPs in presence vs absence of penicillin, in words [1]: nearly identical | STD amplification factor as fraction of highest SP1:PBP5 value ([2]; 1H DA4α,LA1α): 0.3688 | STD % to SP1 ([2]; 1H DA4α,LA1α): 36.8831% | STD amplification factor ([2]; 1H DA4α,LA1α): 9.925 | STD amplification factor as fraction of highest SP1:PBP5 value ([2]; 1H DA4β, DLacβ): 0.2569 | STD % to SP1 ([2]; 1H DA4β, DLacβ): 25.6923% | STD amplification factor ([2]; 1H DA4β, DLacβ): 6.913 | STD amplification factor as fraction of highest SP1:PBP5 value ([2]; 1H DA5α): 0.6484 | STD % to SP1 ([2]; 1H DA5α): 64.837% | STD amplification factor ([2]; 1H DA5α): 17.4466 | STD amplification factor as fraction of highest SP1:PBP5 value ([2]; 1H DA5β): 0.3281 | STD % to SP1 ([2]; 1H DA5β): 32.8081% | STD amplification factor ([2]; 1H DA5β): 8.828 | STD amplification factor as fraction of highest SP1:PBP5 value ([2]; 1H DQ2α,Dlacα,iNα): 0.2333 | STD % to SP1 ([2]; 1H DQ2α,Dlacα,iNα): 23.3322% | STD amplification factor ([2]; 1H DQ2α,Dlacα,iNα): 6.278 | STD amplification factor as fraction of highest SP1:PBP5 value ([2]; 1H DQ2β (first listed)): 0.816 | STD % to SP1 ([2]; 1H DQ2β (first listed)): 81.5959% | STD amplification factor ([2]; 1H DQ2β (first listed)): 21.9561 | STD amplification factor as fraction of highest SP1:PBP5 value ([2]; 1H DQ2β (second listed)): 0.8819 | STD % to SP1 ([2]; 1H DQ2β (second listed)): 88.186% | STD amplification factor ([2]; 1H DQ2β (second listed)): 23.7294 | STD amplification factor as fraction of highest SP1:PBP5 value ([2]; 1H DQ2γ): 0.3832 | STD % to SP1 ([2]; 1H DQ2γ): 38.3191% | STD amplification factor ([2]; 1H DQ2γ): 10.3111 | STD amplification factor as fraction of highest SP1:PBP5 value ([2]; 1H K3α): 0.5115 | STD % to SP1 ([2]; 1H K3α): 51.1543% | STD amplification factor ([2]; 1H K3α): 13.7648 | STD amplification factor as fraction of highest SP1:PBP5 value ([2]; 1H K3β): 1 | STD % to SP1 ([2]; 1H K3β): 100% | STD amplification factor ([2]; 1H K3β): 26.9084 | STD amplification factor as fraction of highest SP1:PBP5 value ([2]; 1H K3δ): 0.7475 | STD % to SP1 ([2]; 1H K3δ): 74.7509% | STD amplification factor ([2]; 1H K3δ): 20.1143 | STD amplification factor as fraction of highest SP1:PBP5 value ([2]; 1H K3ε): 0.2891 | STD % to SP1 ([2]; 1H K3ε): 28.9129% | STD amplification factor ([2]; 1H K3ε): 7.78 | STD amplification factor as fraction of highest SP1:PBP5 value ([2]; 1H LA1β): 0.276 | STD % to SP1 ([2]; 1H LA1β): 27.6026% | STD amplification factor ([2]; 1H LA1β): 7.427 | STD amplification factor as fraction of highest SP1:PBP5 value ([2]; 1H iNβ): 0.3449 | STD % to SP1 ([2]; 1H iNβ): 34.4916% | STD amplification factor ([2]; 1H iNβ): 9.281 | STD amplification factor, ref to SP1 (fraction) ([3]; 1H DA4α,LA1α): 0.3134 | STD, ref to SP1 (percent) ([3]; 1H DA4α,LA1α): 31.3366 | STD amplification factor ([3]; 1H DA4α,LA1α): 8.432 | STD amplification factor, ref to SP1 (fraction) ([3]; 1H DA4β, DLacβ): 0.2401 | STD, ref to SP1 (percent) ([3]; 1H DA4β, DLacβ): 24.0089 | STD amplification factor ([3]; 1H DA4β, DLacβ): 6.4604 | STD amplification factor, ref to SP1 (fraction) ([3]; 1H DA5α): 0.5713 | STD, ref to SP1 (percent) ([3]; 1H DA5α): 57.1289 | STD amplification factor ([3]; 1H DA5α): 15.3725 | STD amplification factor, ref to SP1 (fraction) ([3]; 1H DA5β): 0.2936 | STD, ref to SP1 (percent) ([3]; 1H DA5β): 29.3585 | STD amplification factor ([3]; 1H DA5β): 7.9 | STD amplification factor, ref to SP1 (fraction) ([3]; 1H DQ2α,Dlacα,iNα): 0.2074 | STD, ref to SP1 (percent) ([3]; 1H DQ2α,Dlacα,iNα): 20.7354 | STD amplification factor ([3]; 1H DQ2α,Dlacα,iNα): 5.58 | STD amplification factor, ref to SP1 (fraction) ([3]; 1H DQ2β (first listed)): 0.7176 | STD, ref to SP1 (percent) ([3]; 1H DQ2β (first listed)): 71.7627 | STD amplification factor ([3]; 1H DQ2β (first listed)): 19.3102 | STD amplification factor, ref to SP1 (fraction) ([3]; 1H DQ2β (second listed)): 0.813 | STD, ref to SP1 (percent) ([3]; 1H DQ2β (second listed)): 81.3002 | STD amplification factor ([3]; 1H DQ2β (second listed)): 21.8766 | STD amplification factor, ref to SP1 (fraction) ([3]; 1H DQ2γ): 0.3426 | STD, ref to SP1 (percent) ([3]; 1H DQ2γ): 34.2606 | STD amplification factor ([3]; 1H DQ2γ): 9.219 | STD amplification factor, ref to SP1 (fraction) ([3]; 1H K3α): 0.4115 | STD, ref to SP1 (percent) ([3]; 1H K3α): 41.1521 | STD amplification factor ([3]; 1H K3α): 11.0734 | STD amplification factor, ref to SP1 (fraction) ([3]; 1H K3β): 0.9267 | STD, ref to SP1 (percent) ([3]; 1H K3β): 92.6679 | STD amplification factor ([3]; 1H K3β): 24.9355 | STD amplification factor, ref to SP1 (fraction) ([3]; 1H K3δ): 0.5468 | STD, ref to SP1 (percent) ([3]; 1H K3δ): 54.6801 | STD amplification factor ([3]; 1H K3δ): 14.7135 | STD amplification factor, ref to SP1 (fraction) ([3]; 1H K3ε): 0.1626 | STD, ref to SP1 (percent) ([3]; 1H K3ε): 16.2603 | STD amplification factor ([3]; 1H K3ε): 4.3754 | STD amplification factor, ref to SP1 (fraction) ([3]; 1H LA1β): 0.2447 | STD, ref to SP1 (percent) ([3]; 1H LA1β): 24.4674 | STD amplification factor ([3]; 1H LA1β): 6.584 | STD amplification factor, ref to SP1 (fraction) ([3]; 1H iNβ): 0.3143 | STD, ref to SP1 (percent) ([3]; 1H iNβ): 31.4336 | STD amplification factor ([3]; 1H iNβ): 8.458
